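48-hour exposure; five concentrations; linearly interpolated endpoints. GI50 is the concentration that inhibits growth by half. TGI marks complete inhibition of growth.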
How the values were obtained:
Assay in all cases: growth of human tumour cells (NCI), 48 h
[1] = test system: 786-0 renal
[2] = test system: A498 renal
[3] = test system: A549 NSCLC
[4] = test system: ACHN renal
[5] = test system: BT-549 breast
[6] = test system: CAKI-1 renal
[7] = test system: CCRF-CEM leukemia
[8] = test system: COLO 205 colon
[9] = test system: DU-145 prostate
[10] = test system: EKVX NSCLC
[11] = test system: HCC-2998 colon
[12] = test system: HCT-116 colon
[13] = test system: HCT-15 colon
[14] = test system: HL-60(TB) leukemia
[15] = test system: HOP-62 NSCLC
[16] = test system: HOP-92 NSCLC
[17] = test system: HS 578T breast
[18] = test system: HT29 colon
[19] = test system: IGROV1 ovarian
[20] = test system: K-562 leukemia
[21] = test system: KM12 colon
[22] = test system: LOX IMVI melanoma
[23] = test system: M14 melanoma
[24] = test system: MALME-3M melanoma
[25] = test system: MCF7 breast
[26] = test system: MDA-MB-231 breast
[27] = test system: MDA-MB-435
[28] = test system: MOLT-4 leukemia
[29] = test system: NCI-H226 lung
[30] = test system: NCI-H23 lung
[31] = test system: NCI-H460 lung
[32] = test system: NCI-H522 lung
[33] = test system: NCI/ADR-RES ovarian
[34] = test system: OVCAR-3 ovarian
[35] = test system: OVCAR-4 ovarian
[36] = test system: OVCAR-5 ovarian
[37] = test system: OVCAR-8 ovarian
[38] = test system: PC-3 prostate
[39] = test system: RPMI-8226 leukemia
[40] = test system: RXF 393 renal
[41] = test system: SF-268 CNS
[42] = test system: SF-539 CNS
[43] = test system: SK-MEL-2 melanoma
[44] = test system: SK-MEL-28 melanoma
[45] = test system: SK-MEL-5 melanoma
[46] = test system: SK-OV-3 ovarian
[47] = test system: SN12C renal
[48] = test system: SNB-19 CNS
[49] = test system: SNB-75 CNS
[50] = test system: SR leukemia
[51] = test system: SW-620 colon
[52] = test system: T-47D breast
[53] = test system: TK-10 renal
[54] = test system: U251 CNS
[55] = test system: UACC-62 melanoma
[56] = test system: UO-31 renal
[57] = test system: SF-295 CNS
[58] = test system: UACC-257 melanoma

## COc1ccc(-c2cc(-c3ccc(Cl)cc3)c(C#N)c(=O)n2CCCCCC(=O)Nc2ccccc2N)cc1
[1]
  GI50: 4.49 µM
  TGI: > 100 µM
[2]
  GI50: 1.37 µM
  TGI: 19.2 µM
[3]
  GI50: 4.06 µM
  TGI: > 100 µM
[4]
  GI50: 4.18 µM
  TGI: > 100 µM
[5]
  GI50: 4.49 µM
  TGI: 43.7 µM
[6]
  GI50: 2.04 µM
  TGI: 5.97 µM
[7]
  GI50: 4.84 µM
  TGI: > 100 µM
[8]
  GI50: 3.15 µM
  TGI: 33.2 µM
[9]
  GI50: 10.6 µM
  TGI: > 100 µM
[10]
  GI50: 3.44 µM
  TGI: 61.1 µM
[11]
  GI50: 4.02 µM
  TGI: 36.5 µM
[12]
  GI50: 3.8 µM
  TGI: > 100 µM
[13]
  GI50: 2.78 µM
  TGI: 10.4 µM
[14]
  GI50: 2.6 µM
  TGI: 7.12 µM
[15]
  GI50: 3.49 µM
  TGI: 52.1 µM
[16]
  GI50: 1.96 µM
  TGI: 9.93 µM
[17]
  GI50: 3.06 µM
  TGI: 29.7 µM
[18]
  GI50: 3.56 µM
  TGI: > 100 µM
[19]
  GI50: 4.22 µM
  TGI: > 100 µM
[20]
  GI50: 3.37 µM
  TGI: > 100 µM
[21]
  GI50: 4.58 µM
  TGI: 27 µM
[22]
  GI50: 1.64 µM
  TGI: 3.45 µM
[23]
  GI50: 2.44 µM
  TGI: 6.57 µM
[24]
  GI50: 3.19 µM
  TGI: 20.3 µM
[25]
  GI50: 3.25 µM
  TGI: > 100 µM
[26]
  GI50: 7.12 µM
  TGI: > 100 µM
[27]
  GI50: 3.69 µM
  TGI: 18.7 µM
[28]
  GI50: 5.16 µM
  TGI: > 100 µM
[29]
  GI50: 4.58 µM
  TGI: 78.9 µM
[30]
  GI50: 6.04 µM
  TGI: 27.3 µM
[31]
  GI50: 3.42 µM
  TGI: 27.2 µM
[32]
  GI50: 4.43 µM
  TGI: > 100 µM
[33]
  GI50: 3.99 µM
  TGI: > 100 µM
[34]
  GI50: 5 µM
  TGI: 25.3 µM
[35]
  GI50: 6.48 µM
  TGI: > 100 µM
[36]
  GI50: 10.9 µM
  TGI: > 100 µM
[37]
  GI50: 4.31 µM
  TGI: > 100 µM
[38]
  GI50: 3.05 µM
  TGI: 31 µM
[39]
  GI50: 1.43 µM
  TGI: 7.28 µM
[40]
  GI50: 1.77 µM
  TGI: 5.68 µM
[41]
  GI50: 14.9 µM
  TGI: > 100 µM
[42]
  GI50: 9.29 µM
  TGI: > 100 µM
[43]
  GI50: 4.68 µM
  TGI: 33.1 µM
[44]
  GI50: 3.88 µM
  TGI: 97.8 µM
[45]
  GI50: 1.93 µM
  TGI: 3.73 µM
[46]
  GI50: 5.36 µM
  TGI: 38.4 µM
[47]
  GI50: 7.66 µM
  TGI: > 100 µM
[48]
  GI50: 23.1 µM
  TGI: > 100 µM
[49]
  GI50: 1.4 µM
  TGI: 5.83 µM
[50]
  GI50: 2.02 µM
  TGI: > 100 µM
[51]
  GI50: 3.87 µM
  TGI: > 100 µM
[52]
  GI50: 3.33 µM
  TGI: > 100 µM
[53]
  GI50: 28.5 µM
  TGI: > 100 µM
[54]
  GI50: 6.19 µM
  TGI: > 100 µM
[55]
  GI50: 2.4 µM
  TGI: 8.56 µM
[56]
  GI50: 3.96 µM
  TGI: > 100 µM

## CN(C)CCCn1c2c(c3ccc(N4CCNCC4)cc3c1=O)C(=O)c1ccccc1-2
[1]
  GI50: 1.34 µM
  TGI: 2.73 µM
[3]
  GI50: 0.224 µM
  TGI: 2.23 µM
[4]
  GI50: 0.392 µM
  TGI: 2.63 µM
[5]
  GI50: 1.27 µM
  TGI: 2.77 µM
[6]
  GI50: 1.05 µM
  TGI: 4.52 µM
[7]
  GI50: 0.335 µM
  TGI: 1.94 µM
[8]
  GI50: 0.624 µM
  TGI: 2.28 µM
[9]
  GI50: 0.329 µM
  TGI: 1.65 µM
[10]
  GI50: 1.18 µM
  TGI: 2.93 µM
[11]
  GI50: 0.352 µM
  TGI: 1.71 µM
[13]
  GI50: 0.728 µM
  TGI: 3.04 µM
[14]
  GI50: 1.17 µM
  TGI: 3.05 µM
[15]
  GI50: 1.06 µM
  TGI: 2.64 µM
[16]
  GI50: 1.72 µM
  TGI: 6.53 µM
[17]
  GI50: 1.44 µM
  TGI: 4.38 µM
[18]
  GI50: 0.351 µM
  TGI: 1.9 µM
[19]
  GI50: 0.844 µM
  TGI: 3.73 µM
[20]
  GI50: 0.833 µM
  TGI: 2.55 µM
[21]
  GI50: 1.13 µM
  TGI: 3.07 µM
[22]
  GI50: 0.145 µM
  TGI: 0.481 µM
[23]
  GI50: 1.05 µM
  TGI: 2.39 µM
[24]
  GI50: 1.42 µM
  TGI: 3.46 µM
[25]
  GI50: 0.296 µM
  TGI: 1.78 µM
[26]
  GI50: 0.505 µM
  TGI: 2.05 µM
[27]
  GI50: 1.2 µM
  TGI: 2.67 µM
[28]
  GI50: 0.0979 µM
  TGI: 0.922 µM
[29]
  GI50: 0.564 µM
  TGI: 2.9 µM
[30]
  GI50: 1.05 µM
  TGI: 2.64 µM
[31]
  GI50: 0.307 µM
  TGI: 1.56 µM
[32]
  GI50: 0.96 µM
  TGI: 2.55 µM
[33]
  GI50: 1.16 µM
  TGI: 2.83 µM
[34]
  GI50: 1.05 µM
  TGI: 3.07 µM
[35]
  GI50: 0.343 µM
  TGI: 1.88 µM
[36]
  GI50: 2.12 µM
  TGI: 5.57 µM
[37]
  GI50: 0.403 µM
  TGI: 1.99 µM
[38]
  GI50: 0.863 µM
  TGI: 3.79 µM
[39]
  GI50: 0.271 µM
  TGI: 0.978 µM
[40]
  GI50: 1.29 µM
  TGI: 2.9 µM
[41]
  GI50: 0.95 µM
  TGI: 2.72 µM
[57]
  GI50: 1.16 µM
  TGI: 3.36 µM
[42]
  GI50: 1.61 µM
  TGI: 3.16 µM
[43]
  GI50: 1.71 µM
  TGI: 3.38 µM
[44]
  GI50: 1.53 µM
  TGI: 3.33 µM
[45]
  GI50: 0.698 µM
  TGI: 2.2 µM
[46]
  GI50: 1.05 µM
  TGI: 3.51 µM
[47]
  GI50: 0.329 µM
  TGI: 1.79 µM
[48]
  GI50: 0.541 µM
  TGI: 3.23 µM
[49]
  GI50: 0.947 µM
  TGI: 2.55 µM
[50]
  GI50: 0.307 µM
  TGI: 1.69 µM
[51]
  GI50: 0.164 µM
  TGI: 1.61 µM
[52]
  GI50: 1.55 µM
  TGI: 4.42 µM
[53]
  GI50: 1.33 µM
  TGI: 4.41 µM
[54]
  GI50: 0.639 µM
  TGI: 2.31 µM
[58]
  GI50: 1.69 µM
  TGI: 3.74 µM
[55]
  GI50: 1.03 µM
  TGI: 2.52 µM
[56]
  GI50: 0.765 µM
  TGI: 2.56 µM

Reference: PubChem BioAssay (NCI)
